According to patent publication US20220364181A1, “METHOD AND A KIT FOR PREDICTING THE SUSCEPTIBILITY TO STIMULATOR OF INTERFERON GENES (STING) AGONISTS IN A CANCER PATIENT” (China Medical University, priority 2021, published 2022):

Experiments:
EMT6 cell line = experiment: In vitro assay for susceptibility to STING agonists, ELISA of interferon β, EMT6; format: cell-based, mouse; conditions: EMT6 MTAP(−) cells compared with MTAP(+) cells, 100 μg/mL STING agonist, 24 hours
Procedure: (§1) Two cancer cell lines, the mouse mammary carcinoma cell line EMT6 and the mouse colon adenocarcinoma cell line MC38, were used in the present invention as the models of cell assays.
(§2) These two cancer cell lines were divided into two groups, one group was treated with cell culture medium, and named as MTAP (+); the other group was treated with siRNA of the S-methyl-5′-thioadenosine phosphorylase (MTAP) for gene knock-out, and named as MTAP(−).
In the present invention, two cancer cell lines (EMT6 cell line and MC38 cell line) of MTAP (+) and MTAP (−) were stimulated with STING agonists, and then the expression level of Type I Interferon was measured to determine the activity of the STING agonists. […]
(§3) The cells were harvested, and a portion of the cells was used for enzyme-linked immunosorbent assay (ELISA) to detect the expression level of interferon β (IFN β); the other portion was used for extraction of mRNA with TRizol, and then real-time quantitative reverse transcription polymerase chain reaction (RT-qPCR) was used to amplify its DNA fragments for detecting the gene expression levels of the interferon beta gene (IFNb1) and interferon-stimulated genes MX1 and ISG15.

MC38 cell line = experiment: In vitro assay for susceptibility to STING agonists, ELISA of interferon β, MC38; format: cell-based, mouse; conditions: 100 μg/mL STING agonist, 24 hours
Procedure: as §1, §2
In the present invention, two cancer cell lines (EMT6 cell line and MC38 cell line) of MTAP (+) and MTAP (−) were stimulated with STING agonists, and then the expression level of Type I Interferon was measured to determine the activity of the STING agonists.
The STING agonists used in the present invention included MIW815 and E7766, and two cells were divided into six groups, respectively, the MTAP(+) Control Group, the MTAP(−) Control Group, MTAP(+) MIW815 Group, MTAP(+) E7766 Group, MTAP(−) MIW815 Group and MTAP(−) E7766 Group.
In this assay, after culturing the EMT6 cell line and the MC38 cell line for 12 hours, the medium of the cells in the MTAP(+) STING Group and the MTAP(−) STING Group were replaced with a medium containing 100 μg/mL of STING agonists, and then subjected to stimulation for 24 hours.
as §3

EMT6 cell lines = experiment: Animal experiment, tumor size of mice inoculated with EMT6 cell lines; format: in vivo
Procedure: In the present invention, the EMT6 cell lines with expressed MTAP (MTAP(+) Group) and the EMT6 cell lines with no expressed MTAP (MTAP(−) Group) were inoculated into mice for in vivo assays of the activity of STING agonists.
In this experiment, MIW815 was selected as the STING agonist, and the mice were divided into 4 groups, 5 mice in each group, namely the MTAP(+) Control Group, the MTAP(−) Control Group, the MTAP(+) MIW815 Group and the MTAP(−) MIW815 Group.
Drugs were administered after the cancer cells grew to be more than 100 mm^3. Phosphate buffered saline solution (PBS) was given to the MTAP(+) Control Group and the MTAP(−) Control Group; and 50 μg of STING agonist MIW815 was given to the MTAP(+) MIW815 Group and the MTAP(−) MIW815 Group at Day 9, 12 and 16.

[1] = MC38 MTAP(−) cells compared with MTAP(+) cells

| SMILES | expression of interferon β (IFN β), ELISA (EMT6 cell line) | expression of interferon β (IFN β), ELISA (MC38 cell line; MC38 MTAP(+) cells) | expression of interferon β (IFN β), ELISA (MC38 cell line; [1]) | tumor size (EMT6 cell lines; EMT6 MTAP(+) tumors, 50 μg at Day 9, 12 and 16, compared with MTAP(+) Control Group (PBS)) | tumor size (EMT6 cell lines; EMT6 MTAP(−) tumors, 50 μg at Day 9, 12 and 16, compared with MTAP(−) Control Group (PBS)) |
| --- | --- | --- | --- | --- | --- |
| O=[P@]1(S)OC[C@H]2O[C@@H]3[C@H](F)[C@@H]2O[P@](=O)(S)OC[C@H]2O[C@H]([C@H](F)[C@@H]2O1)n1cnc2c(ncnc21)NC/C=C/CNc1ncnc2c1ncn23 [E7766] | significantly lower | effectively stimulated the expression of IFN 13 | significantly lower | – | – |
| Nc1ncnc2c1ncn2[C@@H]1O[C@@H]2COP(=O)([S-])O[C@@H]3[C@H](O)[C@@H](COP([O-])(=S)O[C@H]2[C@H]1O)O[C@H]3n1cnc2c(N)ncnc21.[Na+].[Na+] (some centres unmarked) [MIW815] | significantly lower | effectively stimulated the expression of IFN 13 | significantly lower | significantly smaller | not statistically different |
